{
  "source": "the supplement of paper PMC10307832",
  "assay_in_all_cases": "relative viability (nuclei count vs DMSO), 5 days (fraction); higher = more cells survive",
  "key": {"NCI-H1993": {"test_system": "NCI-H1993", "how_it_was_run": "(§1)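 A single step with final 0.05% Triton X-100, 1% formaldehyde and 1 ug/ml Hoechst fixed the cells and stained nuclei 5 days after treatment. Lung cancer cell lines in 1536-well plates had been treated by pin tool the day after seeding with one drug alone or a fixed anchor-drug dose plus five library-drug doses (not always all listed) in √10 steps, and nuclei were counted on 4× images. Relative viability is the ratio of nuclei in treated wells to nuclei in vehicle wells, taken as the median of duplicate plates.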"}, "NCI-H2023": {"test_system": "NCI-H2023", "how_it_was_run": "as §1"}, "NCI-H520": {"test_system": "NCI-H520", "how_it_was_run": "as §1"}, "NCI-H2170": {"test_system": "NCI-H2170", "how_it_was_run": "as §1"}, "NCI-H647": {"test_system": "NCI-H647", "how_it_was_run": "as §1"}, "HCC-44": {"test_system": "HCC-44", "how_it_was_run": "as §1"}, "NCI-H1793": {"test_system": "NCI-H1793", "how_it_was_run": "as §1"}, "NCI-H2085": {"test_system": "NCI-H2085", "how_it_was_run": "as §1"}, "NCI-H1734": {"test_system": "NCI-H1734", "how_it_was_run": "as §1"}, "LOU-NH91": {"test_system": "LOU-NH91", "how_it_was_run": "as §1"}, "NCI-H1563": {"test_system": "NCI-H1563", "how_it_was_run": "as §1"}, "SW 900": {"test_system": "SW 900", "how_it_was_run": "as §1"}},
  "data": [
    {"compound": "Clc1ccc(Nc2nnc(Cc3ccncc3)c3ccccc23)cc1", "note": "[Vatalanib] + COc1cccc2cc(-c3nc([C@H]4CC[C@H](C(=O)O)CC4)n4ncnc(N)c34)[nH]c12 [OSI-027] (partner 0.5 µM)", "values": [
      {"measurement": "relative viability", "setting": "NCI-H1993; first compound 0.1265 µM", "result": 0.558},
      {"measurement": "relative viability", "setting": "NCI-H1993; first compound 0.4 µM", "result": 0.554},
      {"measurement": "relative viability", "setting": "NCI-H1993; first compound 1.265 µM", "result": 0.594},
      {"measurement": "relative viability", "setting": "NCI-H1993; first compound 4 µM", "result": 0.58},
      {"measurement": "relative viability", "setting": "NCI-H2023; first compound 0.04 µM", "result": 0.376},
      {"measurement": "relative viability", "setting": "NCI-H2023; first compound 0.1265 µM", "result": 0.366},
      {"measurement": "relative viability", "setting": "NCI-H2023; first compound 0.4 µM", "result": 0.419},
      {"measurement": "relative viability", "setting": "NCI-H2023; first compound 1.265 µM", "result": 0.342},
      {"measurement": "relative viability", "setting": "NCI-H2023; first compound 4 µM", "result": 0.343},
      {"measurement": "relative viability", "setting": "NCI-H520; first compound 0.04 µM", "result": 0.25},
      {"measurement": "relative viability", "setting": "NCI-H520; first compound 0.1265 µM", "result": 0.23},
      {"measurement": "relative viability", "setting": "NCI-H520; first compound 0.4 µM", "result": 0.244},
      {"measurement": "relative viability", "setting": "NCI-H520; first compound 1.265 µM", "result": 0.252},
      {"measurement": "relative viability", "setting": "NCI-H520; first compound 4 µM", "result": 0.224},
      {"measurement": "relative viability", "setting": "NCI-H2170; first compound 0.04 µM", "result": 0.707},
      {"measurement": "relative viability", "setting": "NCI-H2170; first compound 0.1265 µM", "result": 0.743},
      {"measurement": "relative viability", "setting": "NCI-H2170; first compound 0.4 µM", "result": 0.782},
      {"measurement": "relative viability", "setting": "NCI-H2170; first compound 1.265 µM", "result": 0.63},
      {"measurement": "relative viability", "setting": "NCI-H2170; first compound 4 µM", "result": 0.769},
      {"measurement": "relative viability", "setting": "NCI-H647; first compound 0.04 µM", "result": 0.654},
      {"measurement": "relative viability", "setting": "NCI-H647; first compound 0.1265 µM", "result": 0.597},
      {"measurement": "relative viability", "setting": "NCI-H647; first compound 0.4 µM", "result": 0.634},
      {"measurement": "relative viability", "setting": "NCI-H647; first compound 1.265 µM", "result": 0.568},
      {"measurement": "relative viability", "setting": "NCI-H647; first compound 4 µM", "result": 0.671},
      {"measurement": "relative viability", "setting": "HCC-44; first compound 0.04 µM", "result": 0.524},
      {"measurement": "relative viability", "setting": "HCC-44; first compound 0.1265 µM", "result": 0.652},
      {"measurement": "relative viability", "setting": "HCC-44; first compound 0.4 µM", "result": 0.438},
      {"measurement": "relative viability", "setting": "HCC-44; first compound 1.265 µM", "result": 0.439},
      {"measurement": "relative viability", "setting": "HCC-44; first compound 4 µM", "result": 0.355},
      {"measurement": "relative viability", "setting": "NCI-H1793; first compound 0.04 µM", "result": 0.268},
      {"measurement": "relative viability", "setting": "NCI-H1793; first compound 0.1265 µM", "result": 0.226},
      {"measurement": "relative viability", "setting": "NCI-H1793; first compound 0.4 µM", "result": 0.309},
      {"measurement": "relative viability", "setting": "NCI-H1793; first compound 1.265 µM", "result": 0.217},
      {"measurement": "relative viability", "setting": "NCI-H1793; first compound 4 µM", "result": 0.184},
      {"measurement": "relative viability", "setting": "NCI-H2085; first compound 0.04 µM", "result": 0.685},
      {"measurement": "relative viability", "setting": "NCI-H2085; first compound 0.1265 µM", "result": 0.819},
      {"measurement": "relative viability", "setting": "NCI-H2085; first compound 0.4 µM", "result": 0.883},
      {"measurement": "relative viability", "setting": "NCI-H2085; first compound 1.265 µM", "result": 0.697},
      {"measurement": "relative viability", "setting": "NCI-H2085; first compound 4 µM", "result": 0.544},
      {"measurement": "relative viability", "setting": "NCI-H1734; first compound 0.04 µM", "result": 0.675},
      {"measurement": "relative viability", "setting": "NCI-H1734; first compound 0.1265 µM", "result": 0.463},
      {"measurement": "relative viability", "setting": "NCI-H1734; first compound 0.4 µM", "result": 0.697},
      {"measurement": "relative viability", "setting": "NCI-H1734; first compound 1.265 µM", "result": 0.563},
      {"measurement": "relative viability", "setting": "NCI-H1734; first compound 4 µM", "result": 0.589},
      {"measurement": "relative viability", "setting": "LOU-NH91; first compound 0.04 µM", "result": 0.712},
      {"measurement": "relative viability", "setting": "LOU-NH91; first compound 0.1265 µM", "result": 0.738},
      {"measurement": "relative viability", "setting": "LOU-NH91; first compound 1.265 µM", "result": 0.728},
      {"measurement": "relative viability", "setting": "LOU-NH91; first compound 4 µM", "result": 0.625},
      {"measurement": "relative viability", "setting": "NCI-H1563; first compound 0.04 µM", "result": 0.735},
      {"measurement": "relative viability", "setting": "NCI-H1563; first compound 0.1265 µM", "result": 0.677},
      {"measurement": "relative viability", "setting": "NCI-H1563; first compound 0.4 µM", "result": 0.827},
      {"measurement": "relative viability", "setting": "NCI-H1563; first compound 1.265 µM", "result": 0.698},
      {"measurement": "relative viability", "setting": "NCI-H1563; first compound 4 µM", "result": 0.738},
      {"measurement": "relative viability", "setting": "SW 900; first compound 0.1265 µM", "result": 0.531},
      {"measurement": "relative viability", "setting": "SW 900; first compound 0.4 µM", "result": 0.565},
      {"measurement": "relative viability", "setting": "SW 900; first compound 1.265 µM", "result": 0.618},
      {"measurement": "relative viability", "setting": "SW 900; first compound 4 µM", "result": 0.501}
    ]}
  ]
}
